Data published in article PMC12037037 (Proceedings of the National Academy of Sciences of the …, 2025).
“Also recorded” adds a separate entry of the source.

Legend:
5-HT2CR = target: T1, 5-HT2CR (Homo sapiens, UniProt P28335); assay: IP1 functional assay (5-HT2CR); format: cell-based; details: 5-HT2C, IP1, agonist mode
T1 construct: Epics Therapeutics S.A
Description: IP1 Assay (5-HT2AR and 5-HT2CR). The 5-HT2AR and 5-HT2CR IPOne HTRF assays were performed at Epics
Therapeutics S.A. (Belgium, FAST-0505I) using conventional methods. Experiments were performed using the free bases
of (+)-JRT and (–)-JRT. Briefly, CHO-K1 cells expressing human recombinant 5-HT2AR grown to mid-log phase in culture
media without antibiotics were detached with PBS-EDTA, centrifuged, and resuspended in medium without antibiotics
buffer. Then, 20,000 cells were distributed in a 96-well plate and incubated overnight at 37 °C with 5% CO2. For agonist
were added to each well. The plate was incubated for 60 min at 37 °C with 5% CO2. After addition of the lysis buffer containing
IP1-d2 and anti-IP1 cryptate detection reagents, plates were incubated for 1 h at room temperature and fluorescence ratios
were measured according to the manufacturer’s specifications using the HTRF kit.
IP1 Assay (5-HT2BR). […]
Following incubation, the cells are lysed and the fluorescence acceptor (D2-
labeled IP1) and fluorescence donor (anti-IP1 antibody labeled with europium cryptate) were added. […]
temperature, the fluorescence transfer was measured at lex = 337 nm and lem = 620 and 665 nm using a microplate
reader (Envision, Perkin Elmer). The IP1 concentration was determined by dividing the signal measured at 665 nm by that
measured at 620 nm (ratio). […]

[1] = target: T2, U2OS cells expressing 5-HT2ARs (β-arrestin recruitment) (Homo sapiens, UniProt P28223); assay: PathHunter β-arrestin agonist assay; format: cell-based; details: free base
T2 construct: host or cells: U2OS
T2 sequence (P28223 whole entry): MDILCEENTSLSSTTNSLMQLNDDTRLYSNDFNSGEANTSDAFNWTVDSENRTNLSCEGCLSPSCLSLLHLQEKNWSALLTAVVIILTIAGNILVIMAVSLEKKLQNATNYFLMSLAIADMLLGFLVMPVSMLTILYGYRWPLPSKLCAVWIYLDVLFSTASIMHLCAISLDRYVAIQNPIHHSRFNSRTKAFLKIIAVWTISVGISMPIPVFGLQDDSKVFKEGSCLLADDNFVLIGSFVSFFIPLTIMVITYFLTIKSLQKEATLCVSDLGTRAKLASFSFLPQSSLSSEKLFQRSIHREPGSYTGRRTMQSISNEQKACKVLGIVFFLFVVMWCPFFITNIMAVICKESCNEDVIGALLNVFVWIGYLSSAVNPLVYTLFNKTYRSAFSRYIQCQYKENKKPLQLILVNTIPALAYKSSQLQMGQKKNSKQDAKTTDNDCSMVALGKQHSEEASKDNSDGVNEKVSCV
Description: (D) The PathHunter® β-arrestin assay was used to
b-Arrestin Activation (PathHunter®). The 5-HT2AR PathHunter® b-arrestin agonist assay was performed at Eurofins
DiscoverX (Frement, CA, Catalog # 86-0001P-2090AG).
The PathHunter® β-arrestin assay monitors the activation of a GPCR in a homogenous, non-imaging assay format
using a technology developed by DiscoverX called Enzyme Fragment Complementation (EFC) with β-galactosidase (β-Gal)
as the functonal reporter.
PK and EA are then expressed as fusion proteins in U2OS cells,
with PK fused to the GPCR of interest, and EA fused to b-arrestin. When the target GPCR is activated and β-arrestin is

[2] = test system: E18 rat embryonic cortical neurons (DIV18-19); assay: Spinogenesis assay using cultured rat cortical neurons; format: cell-based
[3] = test system: female C57BL/6J mice, medial prefrontal cortex; assay: In vivo spinogenesis and synaptogenesis (S3EM, layer 1 mPFC); details: 24 h
C57BL/6J mice = assay: Prepulse inhibition (PPI); format: in vivo
Description: Amphetamine-Induced Locomotion. The amphetamine-induced hyperlocomotion assay was performed using male and female C57BL/6J mice that were approximately 8 weeks old at the time of the experiments. Animals were first placed in the test arena (40 cm x 40 cm) for 15 min to obtain a basal reading of locomotion and habituate them to the testing arena.
Next, animals were administered (+)-JRT (1 mg/kg) or VEH (2.5 mL/kg, i.p) and placed back in the test arena. After 15 min, the animals were administered (+)-amphetamine (3 mg/kg) or VEH (2.5 mL/kg) and placed back in the test arena for 60 minutes. Locomotion during the entire experiment was quantified using ANYmaze Video Tracking System, version 7.07 (Stoelting Co.). The test arena was cleaned thoroughly with 70% ethanol between trials.
PCP-Induced Locomotion. The PCP-induced hyperlocomotion assay was performed by Psychogenics using male C57BL/6J mice that were approximately 8 weeks old at the time of the experiments. The experiment was performed during the animal’s light cycle phase. […] Baseline activity was recorded for 30 min. […] Locomotion was assessed using consecutive infrared beam breaks. […]
Next, startle response was measured in response to five 40 ms sound bursts of 80, 90, 100, 110, or 120 dB (random order, fixed intertrial interval). […] Percent PPI was calculated according to the formula: 100 – [(pre-pulse + pulse)/pulse alone) × 100. […]

T1 sequence (P28335 33-458): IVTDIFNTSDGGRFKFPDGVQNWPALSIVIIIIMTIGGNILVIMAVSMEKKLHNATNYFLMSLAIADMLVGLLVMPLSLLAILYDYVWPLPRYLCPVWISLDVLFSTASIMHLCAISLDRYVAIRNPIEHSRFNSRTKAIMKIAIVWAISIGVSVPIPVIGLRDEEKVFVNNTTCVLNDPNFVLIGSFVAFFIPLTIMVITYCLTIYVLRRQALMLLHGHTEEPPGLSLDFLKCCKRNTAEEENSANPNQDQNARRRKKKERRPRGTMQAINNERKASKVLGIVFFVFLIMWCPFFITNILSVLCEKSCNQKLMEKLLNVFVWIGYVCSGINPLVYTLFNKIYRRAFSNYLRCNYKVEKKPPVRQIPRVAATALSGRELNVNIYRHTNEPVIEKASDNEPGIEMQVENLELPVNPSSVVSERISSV

SMILES: CCN(CC)C(=O)[C@@H]1C=C2c3cccc4ccn(c34)C[C@H]2N(C)C1 [(+)-JRT]
- Emax (5-HT2CR): 89%
- β-arrestin recruitment through 5-HT2A receptor activation [1]: potent partial agonist; also recorded: not able to recruit β-arrestin through 5-HT2A receptor activation with high efficacy
- Dendritic spine growth in mature cortical cultures ([2]; 1 μM, 24 h, DIV19, compared to vehicle (P < 0.0001) and CLZ (P = 0.0005)): promoted dendritic spine growth
- Effect of ketanserin (10 μM) pretreatment on compound-induced dendritic spine density ([2]; compound 1 μM): blocks
- Synapse size ([3]; 1 mg/kg IP): remained unchanged
- Increase in synapse density within the mPFC ([3]; single administration 1 mg/kg IP, S3EM): 18%
- Increase in dendritic spine density within the mPFC ([3]; single administration 1 mg/kg IP, layer 1, S3EM): 46%
- Deficits in prepulse inhibition induced by the compound itself (C57BL/6J mice; 1 mg/kg IP): did not induce any deficits in PPI
- Effect of pretreatment on MK-801-induced deficits in prepulse inhibition (C57BL/6J mice; 1 mg/kg IP pretreatment, MK-801): did not exacerbate
